Source: patent US20260216348A1, “IRAK DEGRADATION AGENT AND USE THEREOF” (Increland, priority 2023, published 2026)

How the values were obtained:
[1] = tested on: LPS/IL-1β-induced IL-6 secretion in human peripheral blood mononuclear cells (PBMCs); test: Inhibition of LPS/IL-1β-induced IL-6 secretion in human PBMCs (IL-6 ELISA); format: cell-based; conditions: PBMC, LPS 10 ng/mL + IL-1β 20 ng/mL, 24 h pre-incubation, 20 h stimulation
Summary of the method: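 IC50 values come from fitted curves of IL-6 levels, determined by ELISA (OD450, standard curve) in supernatants diluted 200-fold. Human PBMCs received 5-fold serial compound dilutions (top 1 μM) for 24 h before a 20 h challenge with final 10 ng/mL LPS and 20 ng/mL IL-1β, 37 °C, 5% CO2.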

[2] = Metabolic stability in human liver microsome; format: in vitro ADME; conditions: NADPH, 60 min; for half-life at 1 µM: liver microsomes, read-out: Human liver microsome (t1/2, min)
Experimental: Clean incubation plates T60 and NCF60 were preheated at 37° C. for 10 min. Liver microsomes were diluted to a concentration of 0.56 mg/mL with 100 mM phosphate buffer, and 445 μL of the microsome working solution (0.56 mg/mL) was transferred to the preheated incubation plates T60 and NCF60, followed by incubation of the plates T60 and NCF60 with continuous shaking at 37° C. for 10 min. After incubation, 54 μL of liver microsomes were transferred to a blank plate, 6 μL of NAPDH cofactor was added to the blank plate, and then 180 μL of quenching solution was added to the blank plate. 5 μL of the compound working solution (100 μM) was added to the microsome-containing incubation plates T60 and NCF60, and mixed thoroughly 3 times. For plate NCF60, 50 μL of buffer was added and the system was mixed thoroughly 3 times before timing was started, and the plate was incubated with shaking at 37° C. for 60 min. For the quenching plate, 180 μL of quenching solution and 6 μL of NADPH cofactor were added, and the plate was ensured to be cooled to prevent evaporation. For the T60 plate, the mixture was thoroughly mixed 3 times, and 54 μL of the mixture was immediately transferred to the quenching plate at the time point of 0 min. Then 44 μL of the NAPDH cofactor was added to the incubation plate (T60). Timing was started, and the plate was incubated with shaking at 37° C. for 60 min. At the time points of 5, 15, 30, 45, and 60 min, 180 μL of the quenching solution was added to the quenching plate respectively, mixed once, and 60 μL of sample was continuously transferred from the plate T60 to the quenching plate at each time point. For plate NCF60, after mixing once, 60 μL of the sample was transferred from incubation plate NCF60 to the quenching plate containing quenching solution at the 60-min time point. All sampling plates were shaken for 10 min, then centrifuged at 4000 rpm at 4° C. for 20 min. 80 μL of the supernatant was transferred to 240 μL of HPLC water, and mixed using a plate shaker for 10 min. Each bioanalytical plate was sealed and shaken for 10 min before LC-MS/MS analysis.

[3] = tested on: R848-induced IL-6 secretion in human peripheral blood mononuclear cells (PBMCs); test: Inhibition of R848-induced IL-6 secretion in human PBMCs (IL-6 ELISA); format: cell-based; conditions: PBMC, R848 2.5 μg/mL, 20 h pre-incubation, 24 h stimulation
Experimental: This experiment was carried out in RPMI 1640 medium containing 10% FBS and 1% penicillin/streptomycin, with each of the compounds at an initial test concentration of 1 μM. The compound was dissolved in DMSO to prepare a stock solution, which was serially diluted into a series of working solutions with a 4-fold concentration gradient using the culture medium and then added to a 96-well plate at 10 μL per well. PBMCs (Batch No.: P122101102C; Milecell Biotechnology Inc.) were counted and diluted to a cell concentration of 1.25×10^6 cells/mL, and then added to the aforementioned compound-containing 96-well plate at 160 μL per well. The system was mixed well and incubated in a 5% CO2 incubator at 37° C. for 20 h. Then 10 μL of R848 (final concentration: 2.5 μg/mL) was added, and the culture was continued for 24 h in a 5% CO2 incubator at 37° C. After incubation, the 96-well plate was centrifuged at 2000 rpm for 4 min. The supernatant was collected and diluted 120-fold, then detected using an IL-6 ELISA kit. The OD450 values were read, and converted to IL-6 concentrations based on a standard curve.

[4] = target: T1, IRAK4 (Homo sapiens, UniProt Q9NWZ3); test: IRAK4 protein degradation in THP1 cells (Western blot); format: cell-based; conditions: THP-1 cells, 24 h
T1 construct: Effect of the Compounds on IRAK4 Protein Degradation in THP1 Cells; endogenous in cells; host or cells: THP-1 cells
T1 sequence (Q9NWZ3 1-460): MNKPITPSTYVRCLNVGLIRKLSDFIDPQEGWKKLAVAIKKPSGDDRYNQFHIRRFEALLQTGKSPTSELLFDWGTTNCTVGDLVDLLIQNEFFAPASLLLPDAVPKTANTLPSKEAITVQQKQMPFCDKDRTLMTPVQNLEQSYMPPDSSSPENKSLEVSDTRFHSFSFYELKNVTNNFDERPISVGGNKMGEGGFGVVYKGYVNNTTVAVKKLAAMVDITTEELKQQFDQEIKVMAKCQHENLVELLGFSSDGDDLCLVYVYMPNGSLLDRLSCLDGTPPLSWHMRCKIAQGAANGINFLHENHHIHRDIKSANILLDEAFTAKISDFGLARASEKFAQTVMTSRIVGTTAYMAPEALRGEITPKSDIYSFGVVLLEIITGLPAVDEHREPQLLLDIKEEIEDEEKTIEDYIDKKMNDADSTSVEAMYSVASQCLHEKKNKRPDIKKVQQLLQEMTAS
Summary of the method: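 THP-1 cells (2×10^5/well) were treated with 5-fold serial compound dilutions for 24 h at 37 °C, then lysed with proteasome/phosphatase inhibitors. IRAK4 was detected by Western blot with chemiluminescence and semi-quantified by densitometry. DC50 came from the concentration–response.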

[5] = tested on: CIA-induced rheumatoid arthritis model; test: CIA-induced rheumatoid arthritis model; format: in vivo, DBA/1J mice; conditions: BID, Model 12.31 ± 2.97, Mean ± SD, n = 7
Experimental: 1. DBA/1J mice, male, SPF grade, were pre-acclimatized in the animal facility for one week. 2. On day 1, for the primary immunization, 2 mg/mL bovine type II collagen was mixed thoroughly with an equal volume of complete Freund's adjuvant on ice using a homogenizer until fully emulsified. 100 μL of the collagen emulsion (final concentration 1 mg/mL) was intradermally injected at 2 cm from the base of the mouse tail. Medical iodophor was used to disinfect the tail after injection to prevent tail necrosis, which was conducted for 3 consecutive days. 3. On day 21, bovine type II collagen solution was thoroughly mixed and emulsified with an equal volume of Freund's incomplete adjuvant, using the same method as the primary immunization. 4. On day 26, LPS was administered intraperitoneally at a dose of 50 μg/animal to induce disease. 5. On day 28, the affected mice were scored according to Table 33 and the diameter of their ankle joints was measured. Mice were randomly grouped and treated with medication based on their scores and ankle diameter.

[6] = tested on: IMQ psoriasis model; test: IMQ (imiquimod)-induced psoriasis model; format: in vivo, BALB/c mice; conditions: 100 mg/kg, BID, Mean ± SD, n = 7
Experimental: Male BALB/c mice, aged 6-8 weeks, were randomly divided into 9 groups after 1 week of acclimatization: blank control group, imiquimod model group (IMQ group, corresponding to the model groups in FIGS. 1 and 2), clobetasol propionate cream group (CLO group), TYKI (BMS-986165) group, IRAK4 protein degrader KT-474 (from patent WO2020113233) group (100 mg/kg), and the compound of the present disclosure (at an appropriate dose), with 6-7 mice in each group. One day before modeling, the hair on the backs of the mice was removed with depilatory cream, with a depilated area of 2×2 cm^2. On the day of modeling, IMQ cream was used for modeling, and the corresponding drugs were administered intragastrically for treatment. The compound of the present disclosure (at an appropriate dose) was administered intragastrically once daily, and IMQ cream was applied to the hairless area on the back and left ear of mice 2 h after the first administration. […] The blank group and the IMQ group were administered with vehicle intragastrically twice daily (in the morning and evening), with an 8-h interval between the two intragastric administrations. At 2 h after the first intragastric administration, vaseline and IMQ cream were applied topically to the depilated back and ears of the mice, respectively. The dosage of IMQ cream administered to the depilated area on the back and the left ear was 80 mg and 10 mg, respectively, and the mice in each group were administered the cream for 5 consecutive days.
Reference was made to the Psoriasis Area and Severity Index (PASI) scoring criteria. The psoriasis, erythema, and thickness of skin lesions on the back were scored from 0 to 4 every morning from day 1 of modeling, with the scoring criteria as shown in Table 28. The 3 were added up to obtain a total score, i.e., a total PASI score. The ear thickness of the left ear of the mouse was measured using a digital vernier caliper three times every morning from day 1 of modeling, to obtain a mean value.

[7] = tested on: DSS-induced enteritis model; test: DSS-induced enteritis (colitis) model; format: in vivo, mice; conditions: po, Model 10.33 ± 1.11, Mean ± SD, n = 7
From the text: The experimental mice were pre-acclimatized in the animal facility for one week; at the beginning of the experiment, the mice were given medication intragastrically daily according to their body weight. After the completion of intragastric administration in each group, mice had direct access to water bottles for free drinking. The blank group received normal water, while the other groups received pre-prepared DSS water. Each afternoon, the mice's abdomens were massaged to stimulate defecation, and one fecal pellet was collected onto a white porcelain plate. Fecal consistency was judged and recorded according to Table 30. The fecal occult blood qualitative test kit (Yuanye Biotechnology, #R24187-300T) was used to test for occult blood in feces and the results were interpreted according to Table 31.

SMILES	IC50 [1]	half-life at 1 µM [2]	IC50 [3]	DC50 [4]	further results
CN(C)c1cc2nn([C@H]3CC[C@H](CN4CC[C@H](n5cc6cc(C7CCC(=O)NC7=O)c(F)cc6n5)[C@H](F)C4)CC3)cc2cc1NC(=O)c1cnn2cccnc12 (stereo partly shown) [TM-132]	3.52 nM	93.1 min	7.83 nM	0.31 nM	
Cn1c(=O)n(C2CCC(=O)NC2=O)c2cccc(C#CCOC3CCN(C[C@H]4CC[C@H](n5cc(NC(=O)c6cnn7ccc(N8C[C@H]9C[C@@H]8CO9)nc67)c(C(F)F)n5)CC4)CC3)c21 (stereo partly shown) [KT474, reference compound]					DAI Score d 42 ([5]; 100 mg/kg): 11.63 ± 2.55; PASI Score d 6 ([6]; Model 8.85 ± 1.66): 6.93 ± 2.36; ΔSkin Thickness Change (μm) d 6 ([6]; Model 80.95 ± 6.16): 31.90 ± 9.90 μm; DAI Score d 8 ([7]; 100 mpk, BID): 5.71 ± 1.28
CN(C)c1cc2nn([C@H]3CC[C@H](CN4CCC(n5cc6c(F)cc(C7CCC(=O)NC7=O)cc6n5)CC4)CC3)cc2cc1NC(=O)c1cnn2cccnc12 (stereo partly shown) [TM-233]	0.83 nM	138 min	3.34 nM		
CN(C)c1cc2nn([C@H]3CC[C@H](CN4C[C@@H](F)[C@H](n5cc6c(F)cc(N7CCC(=O)NC7=O)cc6n5)C4)CC3)cc2cc1NC(=O)c1cnn2cccnc12 [TM-221]	1.88 nM		7.1 nM	8.45 nM	DAI Score d 8 ([7]; 3 mpk, QD): 4.43 ± 1.68; DAI Score d 8 ([7]; 10 mpk, QD): 3.00 ± 1.07; DAI Score d 8 ([7]; 30 mpk, QD): 2.57 ± 2.50
CN(C)c1cc2nn([C@H]3CC[C@H](CN4CC[C@@H](n5cc6ccc(C7CCC(=O)NC7=O)cc6n5)[C@H](F)C4)CC3)cc2cc1NC(=O)c1cnn2cccnc12 (stereo partly shown) [TM-152]	9.43 nM	104 min		1.09 nM	
C[C@@H]1CCN(C(=O)CC#N)C[C@@H]1N(C)c1ncnc2[nH]ccc12 [tofacitinib, Tofacitinib, reference compound]					DAI Score d 42 ([5]; 30 mg/kg): 10.67 ± 3.13
CN(C)c1cc2nn(C3CCN(C[C@H]4CC[C@H](n5cc6cc(C7CCC(=O)NC7=O)c(F)cc6n5)CC4)CC3)cc2cc1NC(=O)c1cnn2cccnc12 (stereo partly shown) [TM-8]	0.84 nM			3.58 nM	Human liver microsome (t1/2, min) [2]: 145 min
CN(C)c1cc2nn([C@H]3CC[C@H](CN4CCC(n5cc6cc(N7CCC(=O)NC7=O)ccc6n5)CC4)CC3)cc2cc1NC(=O)c1cnn2cccnc12 [TM-3]	0.39 nM		3.53 nM	2.76 nM	Human liver microsome (t1/2, min) [2]: 145 min
